We go through 15 molecules from patent publication US12006283B2, “HIF-1α inhibitor, preparation method therefor, and pharmaceutical composition for preventing or treating angiogenesis-associated eye disease, containing same as active ingredient” (SEOUL NATIONAL UNIVERSITY R&DB FOUNDATION, priority 2018, dated 2024).

pIC50: −log10 of the molar value.

Test [1] concerns the target T1, HIF-1α (hypoxia-inducible factor 1α) (Homo sapiens, UniProt Q16665). The test is described as follows: Evaluation of HIF-1α inhibitory activity (in vitro). It counts as cell-based. As to conditions: for pIC50: HIF-1α inhibitory activity. How it is done:
<Experimental Example 1> Evaluation of HIF-La Inhibitory Activity (In Vitro) The following experiment was performed in order to evaluate inhibitory activity against HIF-1α (hypoxia-inducible factor 1α) of the compound of Example according to an embodiment of the present invention.

Test [2] concerns the target T1, HIF-1α (hypoxia-inducible factor 1α). The test is described as follows: Evaluation of HIF-1α regulatory activity (in vitro). As to conditions: FIG. 2, compared with Comparative Example 1. It counts as cell-based. How it is done:
<Experimental Example 3> Evaluation of HIF-1α Regulatory Activity (In Vitro)
The following experiment was performed in order to evaluate regulatory activity of HIF-1α (hypoxia-inducible factor 1α) of the compound of Example according to an embodiment of the present invention.
FIG. 2 is a graph showing the results of analysis of the regulatory activity of HIF-1α (hypoxia-inducible factor 1α) of the compound of Example according to an embodiment of the present invention, wherein compound 2 is a compound of Comparative Example 1, and compound 34f is a compound of Example 10.

In test [3] the test system is retinal neovascularization by hypoxia. Kind of test: Evaluation of inhibitory activity against retinal neovascularization by hypoxia. It counts as in vivo. Conditions: FIG. 3; compared with Comparative Example 1. How it is done:
<Experimental Example 4> Evaluation of Inhibitory Activity Against Retinal Neovascularization by Hypoxia
The following experiment was performed in order to evaluate inhibitory activity against retinal neovascularization by hypoxia of the compound of Example according to an embodiment of the present invention.
FIG. 3 is a graph showing the results of analysis of the inhibitory activity against retinal neovascularization by hypoxia of the compound of Example according to an embodiment of the present invention, wherein compound 2 is a compound of Comparative Example 1, and compound 34f is a compound of Example 10.

For the next test, the system named is angiogenesis. Kind of test: Evaluation of inhibitory activity against angiogenesis (in vitro). It counts as cell-based. As to conditions: FIG. 1, compared with Comparative Example 1. How it is done:
<Experimental Example 2> Evaluation of Inhibitory Activity Against Angiogenesis (In Vitro)
The following experiment was performed in order to evaluate inhibitory activity against angiogenesis of the compound of Example according to an embodiment of the present invention.
FIG. 1 is a graph showing the results of analysis of inhibitory activity against angiogenesis of the compound of Example according to an embodiment of the present invention, wherein compound 2 is a compound of Comparative Example 1, and compound 34f is a compound of Example 10.

The pIC50 is the negative decadic logarithm of the IC50, by convention in mol/L. Lower therefore signals a large IC50.

T1 sequence (Q16665 whole entry, looked up): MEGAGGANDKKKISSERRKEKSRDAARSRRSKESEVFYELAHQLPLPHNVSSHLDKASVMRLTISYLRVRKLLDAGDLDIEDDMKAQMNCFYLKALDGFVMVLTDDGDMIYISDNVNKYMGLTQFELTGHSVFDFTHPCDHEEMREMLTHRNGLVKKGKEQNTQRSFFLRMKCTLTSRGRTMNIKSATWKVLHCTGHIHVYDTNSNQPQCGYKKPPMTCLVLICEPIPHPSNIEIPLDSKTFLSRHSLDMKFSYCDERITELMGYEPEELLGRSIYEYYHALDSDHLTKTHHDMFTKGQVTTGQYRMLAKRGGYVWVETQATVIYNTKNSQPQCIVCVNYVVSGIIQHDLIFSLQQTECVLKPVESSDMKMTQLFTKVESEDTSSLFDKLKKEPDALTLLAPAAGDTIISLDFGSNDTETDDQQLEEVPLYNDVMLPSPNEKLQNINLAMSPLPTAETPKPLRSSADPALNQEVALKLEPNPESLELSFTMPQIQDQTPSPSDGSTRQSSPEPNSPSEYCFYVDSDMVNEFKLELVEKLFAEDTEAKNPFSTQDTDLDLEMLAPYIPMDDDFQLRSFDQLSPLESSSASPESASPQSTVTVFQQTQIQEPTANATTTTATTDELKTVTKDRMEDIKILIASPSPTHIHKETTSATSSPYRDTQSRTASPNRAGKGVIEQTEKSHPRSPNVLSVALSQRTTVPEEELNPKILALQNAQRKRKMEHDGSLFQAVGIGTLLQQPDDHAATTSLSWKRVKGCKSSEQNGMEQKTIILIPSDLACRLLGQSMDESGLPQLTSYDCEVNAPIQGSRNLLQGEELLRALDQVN

The molecule `COc1ccc(C(C)C(=O)c2ccc(N3CCCC3)cc2OC)cc1OC` (stereo not shown) [Example 6, 2-(3,4-dimethoxyphenyl)-1-(2-methoxy-4-(pyrrolidin-1-yl)phenyl)propan-1-one] gave a negative logarithm of the IC50 (pIC50) in test [1] of 5.55.
Still for that read-out and setting: for `COc1ccc(C(C)C(=O)c2ccc(N3CCCCC3)cc2OC)cc1OC` (stereo not shown) [Example 7, 2-(3,4-dimethoxyphenyl)-1-(2-methoxy-4-(piperidin-1-yl)phenyl)propan-1-one] the value was 5.73.
The molecule `COc1cc(N2CCCCC2)ccc1C(=O)C(C)c1ccccc1F` (stereo not shown) [Example 15, 2-(2-fluorophenyl)-1-(2-methoxy-4-(piperidin-1-yl)phenyl)propan-1-one] had a pIC50 in test [1] of 5.19.
On the same count and under the same terms, for `COc1ccc(C(C)C(=O)c2ccc(OC3CCCCC3)cc2OC)cc1OC` (stereo not shown) [Example 4, 1-(4-(cyclohexyloxy)-2-methoxyphenyl)-2-(3,4-dimethoxyphenyl)propan-1-one] the value was 5.59; for `CCOc1ccc(C(=O)C(C)c2ccc(OC)c(OC)c2)c(OC)c1` (stereo not shown) [Example 3, 2-(3,4-dimethoxyphenyl)-1-(4-ethoxy-2-methoxyphenyl)propan-1-one], 4.93.
`COc1ccc(C(C)C(=O)c2ccc(N3CCOCC3)cc2)cc1OC` (stereo not shown) [Example 12, 2-(3,4-dimethoxyphenyl)-1-(4-morpholinophenyl)propan-1-one] had a negative logarithm of the IC50 (pIC50) in test [1] of 5.16.
In the case of `COc1ccc(C(C)C(=O)c2ccc(NCc3ccc(C#N)cc3)cc2OC)cc1OC` (stereo not shown) [Example 10], the HIF-1α regulatory activity entry in test [2] was “better HIF-1α regulatory activity than that of the compound of Comparative Example 1”. Further, the “inhibitory activity against retinal neovascularization by hypoxia” value in test [3] was “better inhibitory activity against retinal neovascularization by hypoxia than that of the compound of Comparative Example 1”. Further, the “inhibitory activity against angiogenesis” value with angiogenesis was “better inhibitory activity against angiogenesis than that of the compound of Comparative Example 1”. Also, in test [1], the negative-log IC50 (pIC50) was 6.22. In addition, the “inhibitory activity against HIF-1α (in words)” value in test [1] (comment on Table 2) is “best inhibitory activity against HIF-1a”.
In the case of `COc1ccc(C(C)C(=O)c2ccc(N(C)C)cc2OC)cc1OC` (stereo not shown) [Example 5, 2-(3,4-dimethoxyphenyl)-1-(4-(dimethylamino)-2-methoxyphenyl)propan-1-one], in test [1], the pIC50 is < 4.82.
Take `CC(C(=O)c1ccc(NCc2ccccc2)cc1)c1ccccc1F` (stereo not shown) [Example 14, 1-(4-(benzylamino)phenyl)-2-(2-fluorophenyl)propan-1-one]: the negative-log IC50 (pIC50) in test [1] is 5.13.
`COc1cc(NCc2ccc(C#N)cc2)ccc1C(=O)C(C)c1ccccc1F` (stereo not shown) [Example 16, 4-(((4-(2-(2-fluorophenyl)propanoyl)-3-methoxyphenyl)amino)methyl)benzonitrile]: the pIC50 in test [1] is 5.28.
In the case of `CC(C(=O)c1ccc(N2CCCCC2)cc1)c1ccccc1F` (stereo not shown) [Example 13, 2-(2-fluorophenyl)-1-(4-(piperidin-1-yl)phenyl)propan-1-one], the pIC50 in test [1] was 5.69.
`COc1ccc(C(=O)C(C)c2ccc(OC)c(OC)c2)c(OC)c1` (stereo not shown) [Example 2, 1-(2,4-dimethoxyphenyl)-2-(3,4-dimethoxyphenyl)propan-1-one]: the negative-log IC50 (pIC50) in test [1] is < 4.82.
In turn, `COc1ccc(C(C)C(=O)c2ccc(N3CCOCC3)cc2OC)cc1OC` (stereo not shown) [Example 8, 2-(3,4-dimethoxyphenyl)-1-(2-methoxy-4-morpholinophenyl)propan-1-one] gave a pIC50 in test [1] of 5.06.
Still for that read-out and setting: for “2-(3,4-dimethoxyphenyl)-1-(4-(pyrrolidin-1-yl)phenyl)propan-1-one [Example 11]” the value was 5.58; for `COc1ccc(C(C)C(=O)c2ccc(NCc3ccccc3)cc2OC)cc1OC` (stereo not shown) [Example 9, 1-(4-(benzylamino)-2-methoxyphenyl)-2-(3,4-dimethoxyphenyl)propan-1-one], 5.84.
